Results from patent publication US20030143645A1, “Quinone reductase 2 and aldehyde dehydrogenase as therapeutic targets” (priority 2001, published 2003).
Like-named read-outs stand apart in the source and are kept apart here.

Assays:
QR2 [1] = target: T1, QR2 (Homo sapiens, UniProt P16083); experiment: hQR2 activity assay, enzyme purified from human RBC (Example 1); type: biochemical; design: Pure hALDH was eluted with 5 mM NADH and pure hQR2 with 5 mM NMeN; tissue Valley Biomedical (blood); host or cells: human red blood cells
T1 sequence (P16083 1-231): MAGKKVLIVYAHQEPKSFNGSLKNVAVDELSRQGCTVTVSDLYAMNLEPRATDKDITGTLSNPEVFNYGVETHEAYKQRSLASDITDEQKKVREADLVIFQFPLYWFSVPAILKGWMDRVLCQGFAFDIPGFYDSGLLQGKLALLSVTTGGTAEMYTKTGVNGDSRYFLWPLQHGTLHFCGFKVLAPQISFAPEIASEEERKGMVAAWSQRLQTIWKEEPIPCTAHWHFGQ
Experimental: ATP-affinity array chromatography. In whole mouse experiments, the animal (except for its tail, feet, skin and intestines) was frozen in liquid N2 and blended in buffer A containing 50 mM Hepes, pH 7.5, 50 mM NaCl, 10 mM MgCl2, 0.1% NONIDET- P40, 1 mM dithiothreitol, 1 μg/ml leupeptin, 100 μg/ml pefabloc and 10 μg/ml aprotinin. Mouse lysate was clarified by centrifugation for 1 hr at 100,000×g. For infected and non-infected RBC's˜1.5×10^9 cells were mixed with an equal volume of 2×buffer A, rocked for 30 min at 4° C., and clarified by centrifugation for 1 hr at 100,000×g. Supernatants were dialyzed overnight against 50 mM Hepes, pH 7.5, 50 mM NaCl, 10 mM MgCl2 and 1 mM dithiothreitol. […] Lysates were centrifuged twice at 125,000×g for 1 hr at 4° C. […] Pure hALDH was eluted with 5 mM NADH and pure hQR2 with 5 mM NMeN. The eluants were dialyzed overnight at 4° C. against 25 mM Tris pH 8.0 and 1 mM DTT. hALDHl was assayed as described in Table 2. Purified hQR2 was assayed at 22° C. in 100 μM N-methyldihydronicotinamide, 30 μM menadione, 0.1% Triton X-100, 50 mM Tris pH 8.5, 100 μM dicoumarol (unless stated otherwise).
For QR2 Kd apparent values determined using the expression [formula]
The Kd was determined as [formula]
Where Ao=rate in the absence of drug; Aapp=rate+drug; [M]=concentration of menadione.

QR1 = QR1 (Oryctolagus cuniculus, UniProt U3KNP2); experiment: QR1 activity assay (Example 2); type: biochemical, rabbit; design: QR1 was purified from rabbit liver as previously described; from tissue; host or cells: rabbit liver
Sequence of QR1 (U3KNP2 1-274): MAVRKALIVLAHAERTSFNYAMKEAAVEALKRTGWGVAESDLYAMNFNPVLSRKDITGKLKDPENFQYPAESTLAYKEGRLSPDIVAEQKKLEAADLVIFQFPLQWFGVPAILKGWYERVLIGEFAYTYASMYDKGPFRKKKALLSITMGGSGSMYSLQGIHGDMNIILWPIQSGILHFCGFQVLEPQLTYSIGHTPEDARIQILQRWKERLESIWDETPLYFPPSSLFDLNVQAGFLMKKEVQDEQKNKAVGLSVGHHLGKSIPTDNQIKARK
Experimental: Purification of native ALDH1, QR2 and QR1. RBC extract was prepared as described above and applied to PQ-Sepharose equilibrated in buffer A. ALDH1 and QR2 were obtained by eluting the column with 5 mM b-NAD^+ and NMeH respectively.
(§1) ALDH1, QR2 and QR1 activity assays. […] Reaction products were separated with a gradient of acetonitrile in 10 mM triethylamine acetic acid. […] QR1 IC50 values were calculated using GraphPad Prism.

QR2 [2] = target: T1, QR2; experiment: QR2 activity assay with recombinant QR2 (Example 2); type: biochemical; design: GST (N, cleaved yes); made in house; E. coli only by inference
Experimental: Cloning of human QR2. Human QR2 was PCR amplified from human liver cDNA (Clontech) with the following primers: 5′[…]-3′ and 5′-[…]-3′ and cloned into the pGEX-4T-2 GST expression vector (Pharmacia). GST-tagged QR2 was purified and the GST tag removed according to the manufacturers instructions.
as §1

[3] = test system: purine binding proteome (hALDH1 and hQR2); experiment: ATP affinity array / ATP-Sepharose displacement elution of RBC purine binding proteome; design: species or system human; conditions: for proteins eluted from ATP-Sepharose (ALDH1 55 kDa, QR2 26 kDa): RBC extract, 5 mM drug (Example 2); for proteins eluted from ATP affinity array (hALDH1 and hQR2): non-infected red cells, drug at [mM]
Experimental: ATP-affinity array chromatography. In whole mouse experiments, the animal (except for its tail, feet, skin and intestines) was frozen in liquid N2 and blended in buffer A containing 50 mM Hepes, pH 7.5, 50 mM NaCl, 10 mM MgCl2, 0.1% NONIDET- P40, 1 mM dithiothreitol, 1 μg/ml leupeptin, 100 μg/ml pefabloc and 10 μg/ml aprotinin. Mouse lysate was clarified by centrifugation for 1 hr at 100,000×g. For infected and non-infected RBC's˜1.5×10^9 cells were mixed with an equal volume of 2×buffer A, rocked for 30 min at 4° C., and clarified by centrifugation for 1 hr at 100,000×g. Supernatants were dialyzed overnight against 50 mM Hepes, pH 7.5, 50 mM NaCl, 10 mM MgCl2 and 1 mM dithiothreitol. […] Proteins were resolved by 12% SDS-PAGE and visualized by staining either with Coomassie brilliant Blue R-250 or silver nitrate. Alternatively, proteins were transferred to membrane GeneMate (Kaysville, Utah) in transfer buffer (25 mM Tris, 200 mM glycine, 20% methanol, and 0.01% SDS) for mixed peptide sequencing (Damer et al, J. Biol. Chem. 273:24396 (1998)). hALDH 1 and hQR2 purification and activity assays. Fresh human red blood cells (RBC) were obtained from Valley Biomedical, washed twice with PBS, and lysed in buffer B (0.1% Triton X, 50 mM Tris pH 7.5, 125 mM NaCl, 1 μg/mL aprotonin, 1 μg/mL pepstatin and 10 μg/mL PEFABLOC). Lysates were centrifuged twice at 125,000×g for 1 hr at 4° C. Cleared supernatant was filtered through a […] filter and loaded onto PQ-Sepharose. Pure hALDH was eluted with 5 mM NADH and pure hQR2 with 5 mM NMeN. The eluants were dialyzed overnight at 4° C. against 25 mM Tris pH 8.0 and 1 mM DTT. hALDHl was assayed as described in Table 2. Purified hQR2 was assayed at 22° C. in 100 μM N-methyldihydronicotinamide, 30 μM menadione, 0.1% Triton X-100, 50 mM Tris pH 8.5, 100 μM dicoumarol (unless stated otherwise). N-methyldihydronicotinamide was synthesized (Ortiz-Maldonado et al, Biochemistry 38(50):16636-16647 (1999)) and stored in 100 mM Tris-sulfate pH 8.0.
An ATP affinity array was charged with RBC and P. falciparum (blood stage) infected RBC extract.
chromatography. P. falciparum-infected or non-infected RBCs were lysed by mixing with an equal volume of 2×buffer A and rocking for 30 min at 4° C. 1×buffer A: 50 mM Hepes, pH 7.5, 50 mM NaCl, 10 mM MgCl2, 0.1% NONIDET-P40, 1 mM dithiothreitol, 1 μg/ml leupeptin, 100 μg/ml pefabloc and 1 μg/ml aprotinin. […] Proteins were resolved by 12% SDS-PAGE and visualized by staining with Coomassie brilliant blue R-250 or silver nitrate. Alternatively, proteins were transferred to PVM membrane (Kaysville, Utah) for mixed peptide sequencing (Damer et al, J. Biol. Chem. 273(38):24396-24405 (1998)).
To better understand the mechanism of the quinolines, an attempt was made to identify all quinoline interacting proteins in a cell or animal lysate. To achieve this, a functional proteomics approach was used as outlined in FIG. 7. In this strategy, three different, yet complementary approaches were conducted to identify and validate targets of the quinolines. In step one, termed displacement affinity chromatography, a specific sub-proteome from a cell is captured on an affinity matrix by virtue of its interaction with an immobilized ligand (FIG. 7, Step 1). The sup-proteome is captured after application of saturating amounts of cell lysate and extensive washing of the resin. The compounds of interest (in this case, the quinolines) are then applied to the matrix in parallel and allowed to interact with the bound proteome. […] In the second step, affinity matrices were created by directly linking the quinoline drugs to Sepharose, and after application of cell lysates, all proteins that specifically eluted from these matrices in the presence of drug were identified (FIG. 7 Step 2).

[4] = test system: Plasmodium falciparum strain 3D7; experiment: P. falciparum growth by (3H)hypoxanthine uptake; type: cell-based; conditions: in vitro
Experimental: Plasmodium cultures. Plasmodium falciparum strain 3D7 was obtained from the MR4/ATCC and grown according to the included specifications. Parasites were harvested by saponin lysis as previously described (Schlichtherle et al (eds) Methods in Malaria Research 77(MR4/ATCC, Manasas, Va. 2000). P. falciparum growth was measured by (^3H)hypoxanthine uptake as previously described (Schlichtherle et al (eds) Methods in Malaria Research 77(MR4/ATCC, Manasas, Va. 2000).
To determine the contribution of QR2 or ALDH1 inhibition to the antimalarial properties of the quinolines, known inhibitors of QR2 or ALDH1 were added to P. falciparum and its growth was measured. Known inhibitors of P. falciparum growth all had IC50 values in agreement with the literature (FIG. 12A). […] The explanation for this finding is likely to be related to the abilities of the drugs to penetrate the plasma membrane or their ability to become concentrated within P. falciparum infected RBCs.

malaria infection = experiment: cell-based assays of infection
[5] = substrate: CC1=CC(=O)c2ccccc2C1=O; experiment: hQR2 activity assay, enzyme purified from human RBC (Example 1); type: biochemical; conditions: 22.0 °C
[6] = QR1 purified from rabbit liver, read-out: QR1 IC50 (μM) ± SEM
[7] = recombinant QR2, 50 μM NMeH, 5-30 μM menadione, read-out: QR2 K1 (μM) ± SEM

COc1cc(NC(C)CCCN)c2ncccc2c1 (stereo not shown) [PQ, primaquine]
Kd (QR2 [1]): 9.3 µM
IC50 (QR1): 124 ± 10 µM
effect on QR1 activity (QR1): weakly inhibited
Ki (QR2 [2]): 1.04 ± 0.38 µM
inhibition of QR2 activity (QR2 [2]): potent inhibitors
proteins eluted from ATP-Sepharose (ALDH1 55 kDa, QR2 26 kDa) [3]: selectively eluted proteins of 55 and 26 kDa
proteins eluted from ATP affinity array (hALDH1 and hQR2) [3]: selectively eluted two proteins

O=c1c(O)c(-c2ccc(O)c(O)c2)oc2cc(O)cc(O)c12 [quercetin]
IC50 ([4]; Plasmodium falciparum): 81.8 µM

O=c1cc(-c2ccccc2)oc2cc(O)cc(O)c12 [chrysin]
IC50 ([4]; Plasmodium falciparum): 53.8 µM

Cc1cc(N)c2ccccc2n1 [4AQ, 4 amino quinaldine]
Kd (QR2 [1]; purified hQR2 from human RBC, menadione substrate, read-out: Kd(app)): 0.81 µM
proteins eluted from ATP affinity array (hALDH1 and hQR2) [3]: selectively eluted two proteins

C=C[C@H]1C[N@@]2CC[C@H]1C[C@H]2[C@H](O)c1ccnc2ccc(OC)cc12 [Q, quinine]
IC50 (QR1; [6]): 9.6 ± 0.8 µM
inhibition of QR2 activity (QR2 [2]): less potent inhibitors
Ki (QR2 [2]; [7]): 252 ± 50 µM

CCN(CC)CCCC(C)Nc1c2ccc(Cl)cc2nc2ccc(OC)cc12 (stereo not shown) [QC, Quinacrine]
effect on QR1 activity (QR1): not affected
IC50 (QR1; [6]): > 1000 µM
Ki (QR2 [2]): 0.51 ± 0.11 µM
inhibition of QR2 activity (QR2 [2]): potent inhibitors

CCN(CC)c1ccc(C=O)cc1 [DEAB, diethylaminobenzaldehyde]
antimalarial activity (malaria infection): have antimalarial activity
IC50 [4]: 277 µM

Nc1ccc(S(=O)(=O)c2ccc(N)cc2)cc1 [dapsone]
elution of hQR2, hALDH1 or any other protein from ATP affinity array ([3]; infected or non infected red cell extract): did not elute

OC(c1cc(C(F)(F)F)nc2c(C(F)(F)F)cccc12)C1CCCCN1 (stereo not shown) [MQ, mefloquine]
effect on QR1 activity (QR1): weakly inhibited
IC50 (QR1; [6]): 616 ± 60 µM
inhibition of QR2 activity (QR2 [2]): less potent inhibitors
Ki (QR2 [2]; [7]): 17 ± 4 µM
proteins eluted from ATP-Sepharose (ALDH1 55 kDa, QR2 26 kDa) [3]: selectively eluted proteins of 55 and 26 kDa
proteins eluted from ATP affinity array (hALDH1 and hQR2) [3]: selectively eluted two proteins

B1: hQR2 (Homo sapiens) (protein)
chain: MAGKKVLIVYAHQEPKSFNGSLKNVAVDELSRQGCTVTVSDLYAMNLEPRATDKDITGTLSNPEVFNYGVETHEAYKQRSLASDITDEQKKVREADLVIFQFPLYWFSVPAILKGWMDRVLCQGFAFDIPGFYDSGLLQGKLALLSVTTGGTAEMYTKTGVNGDSRYFLWPLQHGTLHFCGFKVLAPQISFAPEIASEEERKGMVAAWSQRLQTIWKEEPIPCTAHWHFGQ
notes: Pure hALDH was eluted with 5 mM NADH and pure hQR2 with 5 mM NMeN; tissue Valley Biomedical (blood); host or cells: human red blood cells
Km [5]: 14 µM
